From US20080301822A1, “Role of alpha1-adrenergic receptors” (The Cleveland Clinic Foundation, priority 2005, published 2008)

Experiments:
pyramidal cells = assay: Action potential generation in pyramidal cells (unpublished data); type: cell-based
[1] = test system: α1A-AR-EGFP positive hippocampal CA1 interneurons; assay: Cell-attached patch recordings of spontaneous action potentials in hippocampal slices; type: cell-based, mouse; conditions: 6FNE 10 μM
Description: Slice Preparation and Cell Identification. Hippocampal brain slices were prepared from α1A-AR-EGFP mice in strict accordance with a protocol approved by the Institutional Animal Care and Use Committee at the University of North Dakota. Mice were deeply anesthetized with isoflurane, sacrificed by decapitation, and their brains rapidly removed and placed in an ice-cold saline solution containing (in mM): 130 NaCl, 24 NaHCO3, 5 KCl, 1.25 NaH2PO4, 0.5 CaCl2, 4 MgCl2 and 10 glucose (saturated with 95% O2-5% CO2). The brain was then sectioned at 250-350 μm thick intervals using a Microm HM 650V vibrating blade microtome (Richard-Allen Scientific, Kalamazoo, Mich.). Slices were incubated at 35° C. for 40 min and then allowed to recover for at least 30 min at room temperature (22±1° C.) before experimentation. Slices were transferred to a PC-H chamber with a coverslip bottom (SD Instruments, Grants Pass, Oreg.) mounted on the fixed stage of an upright microscope (Olympus BX51 WI, Tokyo, Japan) equipped with a filter set for fluorescence imaging of EGFP and IR-DIC optics. Interneurons were visualized using 470 nm and 900 nm light with a water immersion objective (Olympus LUMPlanF1 60×IR) and two CCD cameras (Olympus MagnaFire and Sony XC-75, Tokyo, Japan). Dedicated MagnaFire software and a Hamamatsu C-2400 camera controller (Hamamatsu City, Japan) were used to adjust image quality in GFP and IR-DIC channels, respectively. […]
Electrophysiological Recordings. […] Action potentials (APs) were recorded using an Axopatch 200B amplifier (Axon Instruments, Union City, Calif.) in voltage-clamp mode, filtered at 2 kHz, digitized at 10 kHz (Digidata 1322A; Axon Instruments), and recorded to disk using pClamp9.0 software (Axon Instruments). […] Data were analyzed offline using Origin (OriginLab Corp., Northampton, Mass.) and Mini analysis 6.0.1 (Synaptosoft Inc., Decatur, Ga.). Each detected event was inspected visually to exclude obvious false action potentials (AP) before analysis. […] Statistical significance (p<0.05) was determined using the paired Student's t test, and mean values are expressed ±SEM.

α1-ARs = assay: Saturation ligand binding on neurosphere membranes; design: species or system mouse; conditions: normal embryonic and neonatal neurospheres, FIG. 19A
Description: Ligand Binding. Membranes were prepared and ligand binding was performed as previously described (Rorabaugh et al., Cardiovas. Res., 65:436-445 (2005)). Saturation or competition binding used the nonselective i-AR antagonist, 2-[β-(4-hydroxyl-3-^125I-iodophenyl)ethylaminomethyl]-tetralone (^125I-HEAT) or ^125I-CYP as the radioligand, using either increasing concentration of the radiolabel or using a KD amount (100 pM) to label total α1-ARs and increasing concentrations of an non-labeled selective antagonist. Non-specific labeling was determined by adding 100 uM phentolamine (or α1-ARs) or 1 uM propranolol (for β-ARs). Bmax and KD were determined through the use of Graphpad Prism. Statistical analysis of the binding data used a one-way ANOVA followed by a Newman-Keul's post-test where p<0.05 was considered significant.

[2] = test system: α1A-AR mediated increased Ngn2 expression in normal neonatal neurospheres; assay: Real time PCR of α1A-AR induced Ngn2 expression with signaling inhibitors; type: cell-based, mouse; conditions: one day phenylephrine treated normal neonatal neurospheres; FIG. 27
Description: (§1) Real Time PCR. Neurospheres were grown in proliferation or differentiation medium for 1, 3, 7 and 10 days respectively. The neurospheres grown in the proliferation medium were treated with phenlyephrine for the above-mentioned time along with Rauwalscine (0.1 uM) and Propranolol (1 uM). Total RNA was isolated using the RNAesy kit (Quiagen) and 2 ug RNA was reverse transcribed using oligodT primers with Superscript II Reverse Transcriptase (Invitrogen). Quantitative real time PCR was performed in iCycler (Biorad) using iQ SYBR Green Supermix. (Bio-Rad) The cDNA was amplified with primers for various neural stem cell proliferation and differentiation genes like Notch-1, Nestin, Mash-1, NeuroD, Math-1, Mash-1, Ngn-1, Ngn-2, D1x-2, Sox-2 and Zic-1. Samples obtained from three independent experiments were used for analysis of relative gene expression using the 2(-Delta Delta C(T) Method (Livak, K J and Schmittgen, T D, Methods 25:402-408 (2001)) and were normalized to α-Tubulin gene expression as internal control.
Since Ngn2 mRNA expression, a major gene of neuronal differentiation, appears to be regulated by the α1A-ARs, the common a i-AR signals responsible for this gene regulation was determined. Real time PCR and inhibitors for PKC (GO6983), PI3K (LY294002), MEK (PD98059) and p38 (SB202190) were used on one day phenylephrine treated normal neonatal neurospheres. The α1A-AR mediated increased Ngn2 expression was blocked by PKC, PI3K and MEK (ERK) inhibition but not by the p38 inhibitor (FIG. 27).

CAM α1A-AR neurospheres = assay: Neurosphere differentiation with phenylephrine, CAM α1A-AR neurospheres; type: cell-based, mouse; conditions: day 10, FIG. 22B
Description: (§2) Differentiation Assay: The neurospheres were differentiated by withdrawing the growth factors either in the differentiation supplement (stem cell technologies) for embryonic neurospheres or in B-27 medium with 2% serum (for neonatal neurospheres) after dissociating them with the chemical dissociation kit (Stem Cell Technologies). The cells were plated at the density of 2×10^5 cells in 12 well plates and treated with Phenylephrine (10 uM).

[3] = test system: normal embryonic mouse neurospheres; assay: Differentiation rates (number of live cells) in differentiation media (−EGF/FGF); type: cell-based; conditions: FIG. 16
Description: Differentiation rates (number of live cells) were also measured in normal neurospheres using differentiation media (−EGF/FGF) with and without phenylephrine.
as §2

[4] = test system: normal neonatal neurospheres; assay: Real time PCR of neurogenic genes after phenylephrine stimulation; type: cell-based, mouse; conditions: FIG. 26
Description: as §1

[5] = test system: normal mouse neurospheres; assay: Neurosphere differentiation with phenylephrine in proliferation media (+EGF/FGF), immunostaining for MAP2, GFAP, NG2; type: cell-based; conditions: phenylephrine 10 uM, 3-10 days
Description: (§3) Neurosphere Isolation Periventricular tissue from 1-2 day old pups was removed into HEPES-buffered Eagles' medium. The tissue was diced and incubated with Mg/Ca-free HBSS containing EDTA, trypsin, and DNase. The tissue was washed, centrifuged, and the pellet was triturated in PBS to produce a single-cell suspension and was passed through a 70 um cell strainer. The cells were cultured in B27 media containing heparin, bFGF and EGF until neurosphere development. Neurospheres were dissociated and replated several passages. A single neurosphere was picked, mechanically dissociated, and cloned by dilution.
as §2, with “The neurospheres were differentiated by withdrawing the growth factors either in the differentiation” left out

[6] = test system: α1A-KO neonatal neurospheres; assay: Neurosphere differentiation with phenylephrine, α1A-KO neurospheres; type: cell-based, mouse; conditions: 10 days, FIG. 23B
Description: as §3, §2

With Cl.NCC(O)c1cc(O)c(O)cc1F (centres unmarked) [6FNE, 6-fluoronorepinephrine (6FNE) hydrochloride] the “action potential generation in pyramidal cells” value (pyramidal cells) was “inhibits action potential generation”, the “effect on AP frequency over control conditions” value ([1]; FIG. 6D, fully reversible with wash) was “large increase in AP frequency” and the “frequency of spontaneous action potential discharge, range” value ([1]; n=4, control range 0-0.7 Hz) was 1.8-6.5 Hz. The “frequency of spontaneous action potential discharge, mean” value ([1]; n=4, mean ±SEM, control 0.3±0.1 Hz, 22±1° C.) was 3.5±1.1 Hz.

O=C1c2ccccc2CCC1CNCCc1ccc(O)c([125I])c1 (stereo not drawn) [125I-HEAT, 2-[β-(4-hydroxyl-3-^125I-iodophenyl)ethylaminomethyl]-tetralone] was tested, and the Kd (α1-ARs) was 0.176 nM.

With COc1ccc2c(c1)c(C1=C(c3c[nH]c4ccccc34)C(=O)NC1=O)cn2CCCN(C)C [GO6983] the “block of α1A-AR mediated increased Ngn2 expression” value [2] was “blocked”.

COc1cccc(-c2cc(=O)c3ccccc3o2)c1N [PD98059] was tested, and the “block of α1A-AR mediated increased Ngn2 expression” value [2] was “blocked”.

For CNC[C@H](O)c1cccc(O)c1 [Phenylephrine], the “effect on CAM α1A-AR neurospheres (differentiation)” value (CAM α1A-AR neurospheres) was “very little effect”, the “differentiation of neurospheres (number of live cells)” value ([3]; differentiation media (−EGF/FGF)) was “enhances differentiation of neurospheres” and the “increase of α1A-AR mRNA expression” value [4] was “two hundred-fold”. The “increase of α1B-AR mRNA expression” value [4] was 10 fold, the “mRNA expression of genes involved in neurogenesis and neuronal differentiation” value ([4]; normal neonatal neurospheres) was “induced increased mRNA expression” and the “differentiation of normal neurospheres in proliferation medium (+EGF/FGF)” value [5] was “caused the differentiation of the neurospheres”. For the same molecule, the “differentiation of normal neurospheres in proliferation medium (+EGF/FGF)” value ([5]; listed as Phe) was “induced differentiation into all three cell types” and the “effect on α1A-KO neurospheres (differentiation)” value [6] was “increased formation of neurons”.

Oc1ccc(-c2nc(-c3ccncc3)c(-c3ccc(F)cc3)[nH]2)cc1 [SB202190] was tested, and the “block of α1A-AR mediated increased Ngn2 expression” value [2] was “not”.

In the case of COc1cc2nc(N3CCN(C(=O)c4ccco4)CC3)nc(N)c2cc1OC [prazosin], the “block of the phenylephrine enhancement of neurosphere differentiation” value ([3]; differentiation media (−EGF/FGF) + phenylephrine) is reported as “can be blocked”.
